Measured values taken from PubChem BioAssay AID248 (DTP/NCI, 2004).
Values joined by “and” are separate entries in the source; they are usually repeats but may differ in a detail not shown here. Equal values may be shown once. Toxic doses and inconclusive results are not listed. Cut-off read from the data, not from the text of the source: active = T/C of 150% or more; inactive = T/C below 125%.

Test system: L1210 leukemia ip in BDF1 mice, survival T/C
Experiment: NCI In Vivo Anticancer Drug Screen. Data for tumor model L1210 Leukemia (intraperitoneal) in B6D2F1 (BDF1) mice
Details: endpoint: mean survival time, higher = longer survival
Outline: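 Ratio derived from survival: compound-dosed mice over vehicle-dosed mice, all bearing a transplantable tumor.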

[1] = dose: 100.0 mg/kg/injection, schedule: Q04DX003 (ip), vehicle: Klucel (hydroxypropylcellulose) (HPC)
[2] = dose: 200.0 mg/kg/injection, schedule: Q04DX003 (ip), vehicle: Klucel (hydroxypropylcellulose) (HPC)
[3] = dose: 400.0 mg/kg/injection, schedule: Q04DX003 (ip), vehicle: Klucel (hydroxypropylcellulose) (HPC)
[4] = dose: 100.0 mg/kg/injection, schedule: Q01DX001 (ip), vehicle: carboxymethylcellulose (CMC)
[5] = dose: 200.0 mg/kg/injection, schedule: Q01DX001 (ip), vehicle: carboxymethylcellulose (CMC)
[6] = dose: 400.0 mg/kg/injection, schedule: Q01DX001 (ip), vehicle: carboxymethylcellulose (CMC)
[7] = dose: 100.0 mg/kg/injection, schedule: Q01DX009 (ip), vehicle: saline with Tween-80
[8] = dose: 200.0 mg/kg/injection, schedule: Q01DX009 (ip), vehicle: saline with Tween-80
[9] = dose: 400.0 mg/kg/injection, schedule: Q01DX009 (ip), vehicle: saline with Tween-80
[10] = dose: 100.0 mg/kg/injection, schedule: Q01DX001 (ip), vehicle: saline
[11] = dose: 200.0 mg/kg/injection, schedule: Q01DX001 (ip), vehicle: saline
[12] = dose: 400.0 mg/kg/injection, schedule: Q01DX001 (ip), vehicle: saline
[13] = dose: 100.0 mg/kg/injection, schedule: Q04DX003 (ip), vehicle: other
[14] = dose: 200.0 mg/kg/injection, schedule: Q04DX003 (ip), vehicle: other
[15] = dose: 400.0 mg/kg/injection, schedule: Q04DX003 (ip), vehicle: other
[16] = dose: 100.0 mg/kg/injection, schedule: Q01DX009 (ip), vehicle: Klucel (hydroxypropylcellulose) (HPC)
[17] = dose: 200.0 mg/kg/injection, schedule: Q01DX009 (ip), vehicle: Klucel (hydroxypropylcellulose) (HPC)
[18] = dose: 400.0 mg/kg/injection, schedule: Q01DX009 (ip), vehicle: Klucel (hydroxypropylcellulose) (HPC)

Measured: T/C

c1ccc(C[Si](c2ccccc2)c2ccccc2)cc1
inactive: [1] 107 % of control | [2] 100 % of control | [3] 98 % of control

COc1ccc(C(=O)c2cc(Br)ccc2O)cc1
inactive: [4] 98 % of control | [5] 100 % of control | [6] 98 % of control

Cc1ccc(/C(=C/c2ccc([N+](=O)[O-])cc2)C(=O)Nc2ccc(S(=O)(=O)F)cc2)cc1
inactive: [7] 94 % of control | [8] 89 % of control | [9] 86 % of control

ClC12CCCC3CCCC(CCC1)C32 (stereo unspecified)
inactive: [7] 101 % of control | [1] 103 % of control | [8] 90 % of control | [2] 97 % of control | [9] 89 % of control | [3] 96 % of control

O=[Se]1OCc2ccccc2CO1
inactive: dose: 9.5 mg/kg/injection, schedule: Q01DX001 (ip), vehicle: saline with Tween-80 101 % of control | dose: 19.0 mg/kg/injection, schedule: Q01DX001 (ip), vehicle: saline with Tween-80 106 % of control | dose: 38.0 mg/kg/injection, schedule: Q01DX001 (ip), vehicle: saline with Tween-80 113 % of control

CC1CCC(C(C)C)C(OC(=O)Nc2ccc(S(=O)(=O)N(C)C)cc2)C1 (stereo unspecified)
inactive: [10] 94 % of control | [11] 89 % of control | [12] 91 % of control

CCN(CC)C1=C(Cl)C(=O)C(N(CC)CC)=C(Cl)C1=O
inactive: dose: 25.0 mg/kg/injection, schedule: Q04DX002 (ip), vehicle: gum acacia 95 % of control | dose: 50.0 mg/kg/injection, schedule: Q04DX002 (ip), vehicle: gum acacia 95 % of control

O=S(=O)(Cc1cccc(C(F)(F)F)c1)c1ccccc1-n1cccc1
inactive: [2] 90 % of control | [3] 98 % of control

CC(C)CCCC(C)C1CCC2C3CC(=O)C45CC4CCC5(C)C3CCC12C (stereo unspecified)
inactive: [13] 97 % of control | [14] 102 % of control | [15] 108 % of control

CCOP(=O)(OCC)C(c1ccccc1)(c1ccccc1)c1ccccc1
inactive: dose: 100.0 mg/kg/injection, schedule: Q04DX002 (ip), vehicle: saline with Tween-80 90 % of control | dose: 200.0 mg/kg/injection, schedule: Q04DX002 (ip), vehicle: saline with Tween-80 90 % of control | dose: 400.0 mg/kg/injection, schedule: Q04DX002 (ip), vehicle: saline with Tween-80 90 % of control

CCN(CC)CCCC(C)Nc1ncnc(N)c1N (stereo unspecified)
inactive: dose: 12.5 mg/kg/injection, schedule: Q04DX003 (ip), vehicle: Klucel (hydroxypropylcellulose) (HPC) 93 % of control | dose: 25.0 mg/kg/injection, schedule: Q04DX003 (ip), vehicle: Klucel (hydroxypropylcellulose) (HPC) 91 % of control | dose: 50.0 mg/kg/injection, schedule: Q04DX003 (ip), vehicle: Klucel (hydroxypropylcellulose) (HPC) 102 % of control

CCCCNc1cc(N)[nH]c(=O)n1
inactive: dose: 75.0 mg/kg/injection, schedule: Q01DX001 (ip), vehicle: saline with Tween-80 93 % of control | dose: 150.0 mg/kg/injection, schedule: Q01DX001 (ip), vehicle: saline with Tween-80 90 % of control | dose: 300.0 mg/kg/injection, schedule: Q01DX001 (ip), vehicle: saline with Tween-80 90 % of control

O=C1c2ccccc2C(=O)C1(Br)C(Cl)c1ccccc1 (stereo unspecified)
inactive: [16] 95 % of control | [1] 96 % of control | [17] 101 % of control | [2] 103 % of control | [18] 97 % of control | [3] 97 % of control

OC(c1nc2ccccc2[nH]1)C(O)C(O)C(O)c1nc2ccccc2[nH]1 (stereo unspecified)
inactive: [10] 105 % of control | dose: 100.0 mg/kg/injection, schedule: Q04DX002 (ip), vehicle: Klucel (hydroxypropylcellulose) (HPC) 100 % of control | [11] 96 % of control | dose: 200.0 mg/kg/injection, schedule: Q04DX002 (ip), vehicle: Klucel (hydroxypropylcellulose) (HPC) 87 % of control | [12] 86 % of control | dose: 400.0 mg/kg/injection, schedule: Q04DX002 (ip), vehicle: Klucel (hydroxypropylcellulose) (HPC) 97 % of control

O=C1CCCCC1O (stereo unspecified)
inactive: dose: 100.0 mg/kg/injection, schedule: Q01DX001 (ip), vehicle: other 116 % of control | dose: 200.0 mg/kg/injection, schedule: Q01DX001 (ip), vehicle: other 103 % of control | dose: 400.0 mg/kg/injection, schedule: Q01DX001 (ip), vehicle: other 95 % of control

Nc1nc(N)c(N)c(SCC(=O)C(=O)O)n1
inactive: dose: 25.0 mg/kg/injection, schedule: Q01DX001 (ip), vehicle: saline with Tween-80 108 % of control | dose: 50.0 mg/kg/injection, schedule: Q01DX001 (ip), vehicle: saline with Tween-80 111 % of control | dose: 100.0 mg/kg/injection, schedule: Q01DX001 (ip), vehicle: saline with Tween-80 106 % of control and 108 % of control | dose: 200.0 mg/kg/injection, schedule: Q01DX001 (ip), vehicle: saline with Tween-80 115 % of control

O=C(Nc1ccc(Nc2ccccc2)cc1)Nc1ccccc1Cl
inactive: [16] 90 % of control | [1] 95 % of control | [17] 90 % of control | [2] 92 % of control | [18] 92 % of control | [3] 90 % of control

CC1=CC=CC(C)(C)CC1=O
inactive: [13] 102 % of control | [14] 91 % of control | [15] 95 % of control

COc1ccc(OC)c(NC(=O)Oc2ccc3c(C)cc(=O)oc3c2)c1
inactive: [16] 101 % of control | [17] 97 % of control | [18] 87 % of control

CCOC(=O)N1C(=O)NC(=O)C1c1ccccc1 (stereo unspecified)
inactive: dose: 50.0 mg/kg/injection, schedule: Q01DX001 (ip), vehicle: saline 97 % of control | [10] 115 % of control | [11] 97 % of control

CCOC1=CC(=O)CCC1
inactive: dose: 50.0 mg/kg/injection, schedule: Q01DX009 (ip), vehicle: saline 98 % of control | dose: 100.0 mg/kg/injection, schedule: Q01DX009 (ip), vehicle: saline 94 % of control | dose: 100.0 mg/kg/injection, schedule: Q04DX003 (ip), vehicle: saline 98 % of control | dose: 200.0 mg/kg/injection, schedule: Q01DX009 (ip), vehicle: saline 100 % of control | dose: 200.0 mg/kg/injection, schedule: Q04DX003 (ip), vehicle: saline 110 % of control | dose: 400.0 mg/kg/injection, schedule: Q04DX003 (ip), vehicle: saline 101 % of control

Cc1ccccc1C(c1ccccc1)C(CC(=O)O)CC(=O)O (stereo unspecified)
inactive: [7] 96 % of control | [13] 100 % of control | [8] 95 % of control | [14] 103 % of control | [9] 93 % of control | [15] 106 % of control

Cc1cc(=O)[nH]c(N/N=C/c2ccc(N(CCCl)CCCl)cc2)n1
inactive: dose: 100.0 mg/kg/injection, schedule: Q04DX003 (ip), vehicle: saline with Tween-80 102 % of control | dose: 200.0 mg/kg/injection, schedule: Q04DX003 (ip), vehicle: saline with Tween-80 105 % of control | dose: 400.0 mg/kg/injection, schedule: Q04DX003 (ip), vehicle: saline with Tween-80 109 % of control

COC(=O)c1cccc(-c2cccc(C(=O)OC)c2)c1
inactive: [4] 96 % of control | [5] 96 % of control | [6] 100 % of control

O=C(Nc1ccc(C(=O)O)cc1)Nc1cccc(C(F)(F)F)c1
inactive: [7] 93 % of control | [8] 87 % of control
